Source: the supplement of paper PMC11451515

Tested on: SEM cells
Assay: cell viability relative to DMSO control; higher = less cytotoxic
Details: 48 h
In short: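 NOMO1 or SEM (500 cells/well) or P12-Ichikawa (1000 cells/well) leukemia cells were adapted for at least four passages in each medium. They were seeded in 1536-well plates (5 μl) and pin-dosed with library compounds in DMSO over an 11-point threefold series, 47 μM to 0.79 nM. CellTiter-Glo One luminescence was read after 48 h at 37°C. Viability is the per-plate percentage relative to DMSO wells, with cell-free wells as background.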

[1] = HPLM + 10% dialyzed FBS, 0.000781 µM
[2] = HPLM + 10% dialyzed FBS, 0.00234 µM
[3] = HPLM + 10% dialyzed FBS, 0.00702 µM
[4] = HPLM + 10% dialyzed FBS, 0.0211 µM
[5] = HPLM + 10% dialyzed FBS, 0.0632 µM
[6] = HPLM + 10% dialyzed FBS, 0.19 µM
[7] = HPLM + 10% dialyzed FBS, 0.569 µM
[8] = HPLM + 10% dialyzed FBS, 1.71 µM
[9] = HPLM + 10% dialyzed FBS, 5.12 µM
[10] = HPLM + 10% dialyzed FBS, 15.4 µM
[11] = HPLM + 10% dialyzed FBS, 46.1 µM
[12] = RPMI 5 mM glucose + 10% FBS, 0.000781 µM
[13] = RPMI 5 mM glucose + 10% FBS, 0.00234 µM
[14] = RPMI 5 mM glucose + 10% FBS, 0.00702 µM
[15] = RPMI 5 mM glucose + 10% FBS, 0.0211 µM
[16] = RPMI 5 mM glucose + 10% FBS, 0.0632 µM
[17] = RPMI 5 mM glucose + 10% FBS, 0.19 µM
[18] = RPMI 5 mM glucose + 10% FBS, 0.569 µM
[19] = RPMI 5 mM glucose + 10% FBS, 1.71 µM
[20] = RPMI 5 mM glucose + 10% FBS, 5.12 µM
[21] = RPMI 5 mM glucose + 10% FBS, 15.4 µM
[22] = RPMI 5 mM glucose + 10% FBS, 46.1 µM
[23] = RPMI 5 mM glucose + 10% dialyzed FBS, 0.000781 µM
[24] = RPMI 5 mM glucose + 10% dialyzed FBS, 0.00234 µM
[25] = RPMI 5 mM glucose + 10% dialyzed FBS, 0.00702 µM
[26] = RPMI 5 mM glucose + 10% dialyzed FBS, 0.0211 µM
[27] = RPMI 5 mM glucose + 10% dialyzed FBS, 0.0632 µM
[28] = RPMI 5 mM glucose + 10% dialyzed FBS, 0.19 µM
[29] = RPMI 5 mM glucose + 10% dialyzed FBS, 0.569 µM
[30] = RPMI 5 mM glucose + 10% dialyzed FBS, 1.71 µM
[31] = RPMI 5 mM glucose + 10% dialyzed FBS, 5.12 µM
[32] = RPMI 5 mM glucose + 10% dialyzed FBS, 15.4 µM
[33] = RPMI 5 mM glucose + 10% dialyzed FBS, 46.1 µM

| Structure (SMILES) | cell viability [1] [%] | cell viability [2] [%] | cell viability [3] [%] | cell viability [4] [%] | cell viability [5] [%] | cell viability [6] [%] | cell viability [7] [%] | cell viability [8] [%] | cell viability [9] [%] | cell viability [10] [%] | cell viability [11] [%] | cell viability [12] [%] | cell viability [13] [%] | cell viability [14] [%] | cell viability [15] [%] | cell viability [16] [%] | cell viability [17] [%] | cell viability [18] [%] | cell viability [19] [%] | cell viability [20] [%] | cell viability [21] [%] | cell viability [22] [%] | cell viability [23] [%] | cell viability [24] [%] | cell viability [25] [%] | cell viability [26] [%] | cell viability [27] [%] | cell viability [28] [%] | cell viability [29] [%] | cell viability [30] [%] | cell viability [31] [%] | cell viability [32] [%] | cell viability [33] [%] |
| --- | --- | --- | --- | --- | --- | --- | --- | --- | --- | --- | --- | --- | --- | --- | --- | --- | --- | --- | --- | --- | --- | --- | --- | --- | --- | --- | --- | --- | --- | --- | --- | --- | --- |
| CCCCN(CCCC)CCC(O)c1cc2c(Cl)cc(Cl)cc2c2cc(C(F)(F)F)ccc12 (stereo unspecified) | 92.5 | 93.3 | 84.3 | 104 | 108 | 122 | 36.2 | 61.7 | 117 | 91.3 | 109 | 109 | 105 | 107 | 115 | 116 | 141 | 48.4 | 52 | 111 | 89.7 | 89 | 92.1 | 116 | 109 | 110 | 105 | 118 | 46.2 | 48.3 | 104 | 83.1 | 105 |
| COc1ccc(/C=C\c2cc(OC)c(OC)c(OC)c2)cc1O | 27.3 | 26.8 | 29.2 | 27.9 | 19.5 | 15.9 | 16.8 | 12.7 | 8.59 | 6.14 | 3.96 | 20 | 22.4 | 23 | 15.1 | 8.98 | 7.29 | 7.3 | 5.54 | 5.21 | 3.08 | 2.03 | 23.3 | 28.5 | 33.5 | 25.2 | 12.6 | 10.5 | 9.81 | 7.46 | 6.37 | 4.4 | 2.55 |
| O=C(NC1CCNCC1)c1n[nH]cc1NC(=O)c1c(Cl)cccc1Cl | 93 | 95.9 | 103 | 127 | 118 | 119 | 98.8 | 16.4 | 7.23 | 5.22 | 3.82 |  |  |  |  |  |  |  |  |  |  |  | 108 | 97.6 | 126 | 115 | 118 | 121 | 129 | 24.6 | 7.87 | 5.31 | 3.76 |
| CN1C(=O)\C(=C/C(=C1/NC2=C(F)C=C(I)C=C2)C(=O)NOCCO)C | 92.4 | 107 | 106 | 91.8 | 91.7 | 78.7 | 67.8 | 67.5 | 77.2 | 70.6 | 72.9 | 97.1 | 102 | 93.9 | 99 | 76.9 | 72.7 | 82 | 86 | 84 | 70.8 | 65 | 109 | 91.8 | 98 | 78.3 | 77.7 | 60.4 | 72.3 | 68.1 | 63.2 | 59 | 67.8 |
| COC[C@H](NC(=O)c1cnc(C)s1)C(=O)N[C@@H](COC)C(=O)N[C@@H](Cc1ccccc1)C(=O)[C@@]1(C)CO1 | 116 | 97.1 | 110 | 121 | 92.3 | 5.47 | 3.74 | 3.51 | 2.04 | 1.53 | 2.48 | 102 | 91.6 | 111 | 120 | 82 | 6.81 | 3.82 | 3.59 | 2.31 | 1.56 | 2.78 | 81.9 | 87.7 | 108 | 101 | 70.3 | 5.77 | 3.78 | 2.78 | 1.96 | 1.46 | 2.4 |
| C[C@H]([C@H](O)CCC(C)(C)O)[C@H]1CC[C@@]2(O)C/3=C/C(=O)[C@@H]4C[C@@H](O)[C@@H](O)C[C@]4(C)[C@H]3CC[C@]12C | 111 | 119 | 102 | 122 | 103 | 109 | 110 | 112 | 108 | 101 | 106 | 132 | 104 | 113 | 125 | 115 | 113 | 119 | 123 | 125 | 110 | 98 |  |  |  |  |  |  |  |  |  |  |  |
| COc1nc(-c2ccc3c(c2)OCO3)n(-c2ccc(NC(=O)CSc3ccccc3)cc2)n1 | 118 | 97.1 | 106 | 112 | 114 | 103 | 117 | 98 | 110 | 98.5 | 98.9 | 113 | 104 | 117 | 102 | 107 | 108 | 94.2 | 95.5 | 95.8 | 101 | 86.7 | 96.4 | 108 | 122 | 119 | 119 | 102 | 89 | 105 | 118 | 99.7 | 82.9 |
| CC(C)C[C@H](CN)CC(=O)O | 110 | 116 | 105 | 111 | 97.6 | 98.8 | 115 | 102 | 119 | 37.9 | 93.9 | 102 | 102 | 98.7 | 105 | 93.9 | 88.7 | 104 | 113 | 103 | 41.2 | 92.1 | 101 | 105 | 107 | 103 | 110 | 102 | 113 | 109 | 97.1 | 38.8 | 110 |
| Cc1cc2c(C(C)C)c(O)c(O)c(C=O)c2c(O)c1-c1c(C)cc2c(C(C)C)c(O)c(O)c(C=O)c2c1O | 107 | 114 | 105 | 113 | 112 | 101 | 116 | 101 | 99.2 | 110 | 27.6 |  |  |  |  |  |  |  |  |  |  |  | 106 | 123 | 120 | 109 | 112 | 113 | 117 | 103 | 106 | 90 | 6.54 |
| CCC(=O)O[C@@]1([C@@H](C)C[C@H]2[C@@H]3CCC/4=C/C(=O)/C=C\[C@]4(C)[C@@]3(F)[C@@H](O)C[C@]12C)C(=O)CCl | 86 | 92.1 | 91.3 | 57.7 | 71.1 | 69.8 | 57 | 72.3 | 61.8 | 66.4 | 63.4 | 88.5 | 95.4 | 95.9 | 51.3 | 67.8 | 62.6 | 65.1 | 66.1 | 67.6 | 56 | 66.9 | 85.2 | 81 | 91.4 | 49.4 | 63.3 | 64.6 | 64.8 | 54.1 | 64.1 | 55.6 | 40.7 |
| C[C@H](NC(=O)C(=O)Nc1ccccc1C(C)(C)C)C(=O)N[C@@H](CC(=O)O)C(=O)COc1c(F)c(F)cc(F)c1F | 89.4 | 106 | 103 | 73.1 | 117 | 113 | 123 | 104 | 58.4 | 12.6 | 18.2 | 99.5 | 103 | 117 | 78 | 119 | 112 | 127 | 104 | 64.9 | 9.34 | 5.77 | 90.8 | 109 | 104 | 74.8 | 118 | 114 | 113 | 109 | 56.9 | 10.3 | 6.8 |
| CCOC(=O)Nc1ccc(NCc2ccc(F)cc2)cc1N | 122 | 122 | 128 | 120 | 103 | 123 | 119 | 112 | 113 | 107 | 90 | 115 | 116 | 123 | 136 | 102 | 131 | 122 | 111 | 113 | 134 | 97.7 | 106 | 132 | 121 | 128 | 123 | 124 | 112 | 122 | 124 | 122 | 83.5 |
| COc1cc2nccc(Oc3ccc(NC(=O)Nc4ccc(F)cc4F)c(F)c3)c2cc1OC | 103 | 86 | 63.8 | 74.4 | 50.7 | 32.3 | 41.6 | 42.2 | 34.9 | 36.4 | 20 | 118 | 115 | 87.7 | 88.9 | 71.9 | 59 | 55.9 | 51.6 | 56.4 | 53.6 | 13.3 | 72.7 | 89 | 51.1 | 62.2 | 41.6 | 37 | 34.1 | 36.4 | 33.4 | 33.3 | 12.6 |
